One test concerns Pseudomonas aeruginosa. The experiment in a line: Antibacterial activity against Pseudomonas aeruginosa 14. The format is functional.
In the next test the test system is Klebsiella pneumoniae. The experiment in a line: Antibacterial activity against Klebsiella pneumoniae WNX-1. The class given is functional.
The subject of the next test is Escherichia coli. The experiment in a line: Antibacterial activity against Escherichia coli ATCC 25922. The format is functional.
The test system of the next test is HL-60. The experiment in a line: Cytotoxicity against human HL-60 cells by MTT assay. The format is functional, cell-based.
Another test relates to L02. The experiment in a line: Cytotoxicity against human L02 cells by SRB assay. The class given is functional, cell-based.
In a further test the test system is HCT-116. The experiment in a line: Cytotoxicity against human HCT-116 cells by SRB assay. The format is functional, cell-based.
A further test has as its system Bacillus subtilis. The experiment in a line: Antibacterial activity against Bacillus subtilis ATCC 6051. The class given is functional.
The next test deals with Enterococcus faecalis. The experiment in a line: Antibacterial activity against Vancomycin resistant Enterococcus faecalis 1010798. The format is functional.
The subject of a further test is A549. The experiment in a line: Cytotoxicity against human A549 cells by SRB assay. The format is functional, cell-based.
The test system of another test is K562. The experiment in a line: Cytotoxicity against human K562 cells by MTT assay. The format is functional, cell-based.
The next test concerns Staphylococcus aureus. The experiment in a line: Antibacterial activity against Staphylococcus aureus ATCC 29213. The class given is functional.
For the next test, the system named is MDA-MB-231. The experiment in a line: Cytotoxicity against human MDA-MB-231 cells by SRB assay. The format is functional, cell-based.
The test system of another test is MCF7. The experiment in a line: Cytotoxicity against human MCF7 cells by SRB assay. The class given is functional, cell-based.
The test system of a further test is Bel-7402. The experiment in a line: Cytotoxicity against human Bel-7402 cells by SRB assay. The class given is functional, cell-based.

Values after ≈ are worked out from the molar mass of the structure shown.

Regarding COLISTIN, the MIC with Pseudomonas aeruginosa was determined as 0.3 µg/mL; in the test with Klebsiella pneumoniae it was 0.5 µg/mL; in the test on Escherichia coli it was 0.5 µg/mL.
`Cc1c(O)cc2c3c1[C@H](C)[C@@H](C)O[C@H]3[C@@H]1CCCC[C@@]1(O)O2`: the MIC against Pseudomonas aeruginosa, in the test with Klebsiella pneumoniae, with Bacillus subtilis, against Enterococcus faecalis, against Staphylococcus aureus and against Escherichia coli was over 64 µg/mL in each case. The IC50 in the test with HL-60, in the test with L02, with HCT-116, with A549, in the test with K562 and in the test with MDA-MB-231 was over 30 µM in each case. In addition, the IC50 with MCF7 and in the test with Bel-7402 was over 30 µM each time.
For `Cc1c(O)cc2c3c1[C@H](C)[C@@H](C)O[C@@H]3[C@@H]1CCCC[C@]1(O)O2`, the MIC against Pseudomonas aeruginosa, in the test with Klebsiella pneumoniae, in the test on Bacillus subtilis, against Enterococcus faecalis, with Staphylococcus aureus and in the test on Escherichia coli was over 64 µg/mL in each case. Besides, the IC50 in the test with HL-60, in the test with L02, in the test with HCT-116, in the test on A549, in the test on K562 and with MDA-MB-231 was over 30 µM each time. Also, the IC50 in the test with MCF7 and in the test on Bel-7402 was over 30 µM each time.
As for `CO[C@]12CCCC[C@@H]1[C@H]1O[C@H](C)[C@@H](C)c3c(C)c(O)cc(c31)O2`, the minimal inhibitory concentration (MIC) against Pseudomonas aeruginosa, in the test on Klebsiella pneumoniae, with Bacillus subtilis, against Enterococcus faecalis, in the test with Staphylococcus aureus and against Escherichia coli was over 64 µg/mL throughout. Besides, the IC50 with HL-60 was over 30 µM; in the test on L02, over 30 µM; with HCT-116, over 30 µM; in the test with A549 it was 19 µM; in the test with K562, over 30 µM; in the test on MDA-MB-231 it was over 30 µM. Also, the IC50 with MCF7 is over 30 µM; in the test with Bel-7402, 17 µM.
For `Cc1c(O)cc2c3c1[C@H](C)[C@@H](C)O[C@@H]3[C@H]1CCCC[C@]1(O)O2`, the MIC in the test with Pseudomonas aeruginosa, against Klebsiella pneumoniae, against Bacillus subtilis, in the test on Enterococcus faecalis, against Staphylococcus aureus and against Escherichia coli was over 64 µg/mL throughout. Besides, the IC50 with HL-60, with L02, with HCT-116, in the test with A549, in the test with K562 and in the test with MDA-MB-231 was over 30 µM throughout. Also, the IC50 in the test on MCF7 and in the test on Bel-7402 was over 30 µM throughout.
With `Cc1c(O)cc2c3c1[C@H](C)[C@@H](C)O[C@H]3[C@H]1CCCC[C@@]1(O)O2`, the MIC in the test with Pseudomonas aeruginosa, against Klebsiella pneumoniae, against Bacillus subtilis, with Enterococcus faecalis, with Staphylococcus aureus and in the test with Escherichia coli was over 64 µg/mL each time. In addition, the IC50 in the test with L02, in the test on K562 and in the test with MDA-MB-231 was over 30 µM throughout.
Take `CO[C@@]12CCCC[C@H]1[C@@H]1O[C@H](C)[C@@H](C)c3c(C)c(O)cc(c31)O2`: the MIC in the test with Pseudomonas aeruginosa was over 64 µg/mL; with Klebsiella pneumoniae it was over 64 µg/mL; against Bacillus subtilis, 32 µg/mL (≈ 100 µM); in the test with Enterococcus faecalis it was 32 µg/mL (≈ 100 µM); against Staphylococcus aureus, 64 µg/mL (≈ 201 µM); in the test with Escherichia coli, over 64 µg/mL. Besides, the IC50 in the test on HL-60 is over 30 µM; in the test with L02 it was over 30 µM; in the test with HCT-116, over 30 µM; in the test with A549, over 30 µM; in the test on K562 it was 26 µM; in the test on MDA-MB-231 it was over 30 µM. Besides, the IC50 with MCF7 and in the test with Bel-7402 was over 30 µM each time.
Regarding `C/C=C/[C@@H]1C=C[C@@H]2C[C@H](C)CC[C@H]2[C@]1(C)/C(O)=C1/C(=O)[C@H](CO)N(C)C1=O`, the MIC with Bacillus subtilis worked out at 1 µg/mL (≈ 2.68 µM); in the test with Enterococcus faecalis, 2 µg/mL (≈ 5.35 µM); in the test with Staphylococcus aureus it was 2 µg/mL (≈ 5.35 µM).
On to `Cc1c(O)cc(O)c2c1[C@H](C)[C@@H](C)OC21CCCCC1`, for which the MIC was over 64 µg/mL against Pseudomonas aeruginosa; over 64 µg/mL against Klebsiella pneumoniae; 32 µg/mL (≈ 116 µM) against Bacillus subtilis; 32 µg/mL (≈ 116 µM) in the test with Enterococcus faecalis; 16 µg/mL (≈ 57.9 µM) against Staphylococcus aureus; over 64 µg/mL against Escherichia coli. The IC50 in the test on HL-60 was 20 µM; with L02, over 30 µM; with HCT-116, 24 µM; in the test on A549, 28 µM; with K562, 8.8 µM; in the test on MDA-MB-231 it was 26 µM. The IC50 turned out to be 15 µM with MCF7 and 12 µM in the test on Bel-7402.
For `COc1cccc2c1C(=O)c1c(O)c3c(c(O)c1C2=O)C[C@@](O)(C(=O)CO)C[C@@H]3O[C@H]1C[C@H](N)[C@H](O)[C@H](C)O1` [DOXORUBICIN], the IC50 in the test with HL-60, with L02, with HCT-116, with A549, with K562 and in the test with MDA-MB-231 was under 1 µM in each case. Besides, the IC50 with MCF7 and with Bel-7402 was under 1 µM in each case.

The values above are taken from ChEMBL document CHEMBL4823257, “Penitol A and Penicitols E-I: Citrinin Derivatives from Penicillium citrinum and the Structure Revision of Previously Proposed Analogues” (J Nat Prod, 2021).
